Data set [1] concerns recurrence of hepatocellular carcinoma. Briefly: Clinical test of recurrence of hepatocellular carcinoma after radical treatment in HCV-positive subjects (dynamic CT every 12 weeks, log-rank test). Format: in vivo, human. The settings on record: for 50% Recurrence free interval / 75% Recurrence free interval: peroral, 96 weeks, in combination with branched-chain amino acid preparation. Here is the method:
Peretinoin produced through a known method was used as an acyclic retinoid. A commercial preparation containing isoleucine, leucine, and valine in combination was used as a branched-chain amino acid.
Forty-six subjects (age: 49 to 80) were tested. […] As a preparation containing a branched-chain amino acid, Aminoleban (registered trademark) EN combination powder or Livact (registered trademark) combination granules were administered in a specific amount during the test period. The daily dose of Aminoleban was 150 g (the daily dose including L-isoleucine (5.7675 g), L-leucine (6.111 g), and L-valine (4.806 g)), and that of Livact was 12.45 g (the daily dose including L-isoleucine (2.856 g), L-leucine (5.712 g), and L-valine (3.432 g)). As an acyclic retinoid, peretionin, was administered to the subjects in combination with the branched-chain amino acid. The subjects were divided into the following groups:
1: peretinoin 600 mg (daily dose, the same applies hereinafter) combination group: 18 subjects (male: 11, female: 7),
2: peretinoin 300 mg combination group: 15 subjects (male: 9, female: 6), and
3: branched-chain amino acid sole administration group: 13 subjects (male: 8, female: 5).
The daily dose of peretinoin was divided into two portions. On each day during 96 weeks after start of the test, peretinoin was perorally administered after meal.
Radical curing and recurrence of hepatocellular carcinoma were confirmed through dynamic CT measured every 12 weeks after the start of the test. The combinatory effect on cumulative recurrence free rate was evaluated through the log-rank test.

The test system is the same in data set [2]. The following applies: clinical study, cited from earlier work.
A further data set has as its system liver cancer cells. The settings on record: cited from earlier work.
Where [3] appears, read: peretinoin 300 mg daily, 15 HCV-positive subjects.
[4] abbreviates: peretinoin 600 mg daily, 18 HCV-positive subjects.

Consider `CC(C)=CCC/C(C)=C/CC/C(C)=C/C=C/C(C)=C/C(=O)O` [peretinoin, (2E,4E,6E,10E)-3,7,11,15-tetramethylhexadeca-2,4,6,10,14-pentaenoic acid], for which the “50% Recurrence free interval” value in data set [1] (setting [3]) and in data set [1] (setting [4]) was >730 days each time. Also, the “75% Recurrence free interval” value in data set [1] (setting [3]) came out at 415 days; in data set [1] (setting [4]) it was 705 days. The “extension of 75% recurrence free interval compared with the sole branched-chain amino acid administration group” value was 227 days in data set [1] (peretinoin 300 mg in combination with branched-chain amino acid) and 517 days in data set [1] (peretinoin 600 mg in combination with branched-chain amino acid). In data set [1] (peretinoin 600 mg and 300 mg combination groups with branched-chain amino acid), the “cumulative recurrence free rate (FIG. 1)” value is on record as “remarkable improvement”. For the same compound, the “cumulative recurrence free rate compared with the sole branched-chain amino acid administration group” value in data set [1] (peretinoin 600 mg combination group, Log-rank test) was “significantly improved”. Also, the “extension of 50% recurrence free interval compared with the sole branched-chain amino acid administration group” value in data set [1] (peretinoin and branched-chain amino acid combination groups (600 mg and 300 mg)) was “more than double”. Besides, the “hepatocellular carcinoma recurrence rate” value in data set [1] (peretinoin in combination with branched-chain amino acid) is given as “reduce”. For the same compound, the “liver disorders / adverse side effects” value in data set [2] is “substantially no liver disorders”. In addition, the “recurrence of hepatocellular carcinoma after radical treatment” value in data set [2] (long-term administration for one year) is given as “significantly inhibited”.
In the case of `CC(C)=CCC/C(C)=C/CC/C(C)=C/CC/C(C)=C/C(=O)O` [geranylgeranoic acid], in the data set on liver cancer cells, the “apoptosis of liver cancer cells” value is “induce apoptosis”.

The values above are taken from patent publication US8853273B2, “Medicinal agent for prevention and/or treatment of hepatocellular carcinoma” (Kowa Co., Ltd., priority 2010, dated 2014).
